{"source": "ChEMBL document CHEMBL5154871", "about": "“Non-peptidyl non-covalent cathepsin C inhibitoEEr bearing a unique thiophene-substituted pyridine: Design, structure-activity relationship and anti-inflammatory activity in vivo” (Eur J Med Chem, 2022)", "key": {"Dipeptidyl peptidase 1": {"target": "Dipeptidyl peptidase 1 (Homo sapiens, UniProt P53634)", "sequence (P53634 25-134 limits assumed)": "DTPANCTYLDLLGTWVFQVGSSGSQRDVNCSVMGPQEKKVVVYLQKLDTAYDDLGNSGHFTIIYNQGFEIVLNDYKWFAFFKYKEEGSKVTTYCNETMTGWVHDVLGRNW", "sequence (P53634 231-394 limits assumed)": "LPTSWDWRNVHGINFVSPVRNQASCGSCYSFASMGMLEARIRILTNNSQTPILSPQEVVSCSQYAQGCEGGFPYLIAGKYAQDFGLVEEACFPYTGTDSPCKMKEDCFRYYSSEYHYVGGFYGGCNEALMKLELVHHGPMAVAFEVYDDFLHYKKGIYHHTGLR", "sequence (P53634 395-463 limits assumed)": "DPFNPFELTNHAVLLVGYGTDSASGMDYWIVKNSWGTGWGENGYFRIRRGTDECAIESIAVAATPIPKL", "assay": "Inhibition of human recombinant Cathepsin C using H-Gly-Arg-AMC as substrate pretreated for 30 mins followed by substrate addition and incubated for 60 mins by microplate reader assay"}, "[1]": {"assay": "Acute toxicity in ICR mouse assessed as pathological changes of spleen at 1500 mg/kg, po administered as single dose measured after 7 days by H and E staining based assay", "assay_type": "organism-based", "conditions": "in vivo, time 7 day"}, "[2]": {"assay": "Oral bioavailability in Sprague-Dawley rat at 10 mg/kg measured after 24 hrs by LC-MS/MS analysis", "assay_type": "ADME, organism-based", "conditions": "in vivo"}, "[3]": {"assay": "Tmax in Sprague-Dawley rat at 10 mg/kg, po measured after 24 hrs by LC-MS/MS analysis", "assay_type": "ADME, organism-based", "conditions": "in vivo"}, "[4]": {"assay": "MRT in Sprague-Dawley rat at 10 mg/kg, po measured after 24 hrs by LC-MS/MS analysis", "assay_type": "ADME, organism-based", "conditions": "in vivo"}, "[5]": {"assay": "MRT in Sprague-Dawley rat at 2 mg/kg, iv measured after 24 hrs by LC-MS/MS analysis", "assay_type": "ADME, organism-based", "conditions": "in vivo"}, "[6]": {"assay": "AUC(0 to infinity) in Sprague-Dawley rat at 2 mg/kg, iv by LC-MS/MS analysis", "assay_type": "ADME, organism-based", "set-up": "time infinity, dose 2 mg/kg, route iv", "conditions": "in vivo"}, "[7]": {"target": "T1, Dipeptidyl peptidase 1 (Mus musculus) (UniProt P97821)", "T1 sequence (whole entry)": "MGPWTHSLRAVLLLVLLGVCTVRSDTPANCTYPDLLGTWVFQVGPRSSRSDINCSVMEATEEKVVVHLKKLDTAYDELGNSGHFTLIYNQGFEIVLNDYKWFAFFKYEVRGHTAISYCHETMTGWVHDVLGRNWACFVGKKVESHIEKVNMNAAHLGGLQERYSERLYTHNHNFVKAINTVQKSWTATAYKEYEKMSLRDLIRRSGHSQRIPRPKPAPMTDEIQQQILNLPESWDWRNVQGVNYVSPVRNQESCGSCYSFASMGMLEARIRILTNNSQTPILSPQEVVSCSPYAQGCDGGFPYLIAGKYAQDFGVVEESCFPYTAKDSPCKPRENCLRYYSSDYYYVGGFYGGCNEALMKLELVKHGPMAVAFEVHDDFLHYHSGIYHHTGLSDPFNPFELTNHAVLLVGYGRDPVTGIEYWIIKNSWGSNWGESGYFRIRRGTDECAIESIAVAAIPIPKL", "assay": "Inhibition of Cathepsin C in C57BL/6 mouse Bone marrow cells assessed as reduction of NSPs stability by measuring stability of neutrophil elastase at 1 uM treated for 6 hrs by Western blotting analysis", "assay_type": "cell-based", "set-up": "scale not given: the % may be the effect or the level left", "conditions": "Bone marrow cell"}, "[8]": {"target": "T1, Dipeptidyl peptidase 1 (Mus musculus)", "assay": "Inhibition of Cathepsin C in C57BL/6 mouse Bone marrow cells assessed as reduction of NSPs stability by measuring stability of Cat G at 1 uM treated for 6 hrs by Western blotting analysis", "assay_type": "cell-based", "set-up": "scale not given: the % may be the effect or the level left", "conditions": "Bone marrow cell"}, "[9]": {"target": "T1, Dipeptidyl peptidase 1 (Mus musculus)", "assay": "Inhibition of Cathepsin C in C57BL/6 mouse Bone marrow cells assessed as reduction of NSPs stability by measuring stability of neutrophil elastase at 1 uM treated for 12 hrs by Western blotting analysis", "assay_type": "cell-based", "set-up": "scale not given: the % may be the effect or the level left", "conditions": "Bone marrow cell"}, "[10]": {"target": "T1, Dipeptidyl peptidase 1 (Mus musculus)", "assay": "Inhibition of Cathepsin C in C57BL/6 mouse Bone marrow cells assessed as reduction of NSPs stability by measuring stability of neutrophil elastase at 1 uM treated for 48 hrs by Western blotting analysis", "assay_type": "cell-based", "set-up": "scale not given: the % may be the effect or the level left", "conditions": "Bone marrow cell"}, "[11]": {"target": "T1, Dipeptidyl peptidase 1 (Mus musculus)", "assay": "Inhibition of Cathepsin C in C57BL/6 mouse Bone marrow cells assessed as reduction of NSPs stability by measuring stability of protease 3 at 1 uM treated for 48 hrs by Western blotting analysis", "assay_type": "cell-based", "set-up": "scale not given: the % may be the effect or the level left", "conditions": "Bone marrow cell"}, "Mus musculus [12]": {"tested_on": "Mus musculus", "assay": "Anti-inflammatory activity against po dosed LPS-induced ALI C57BL/6 mouse model assessed as decrease in MPO activity in lungs treated 1 hr prior to LPS challenge and measured after 48 hrs", "assay_type": "functional, organism-based", "conditions": "dose 2-50 mg/kg, time 49.0 hrs, DDE = dose-dependent effect"}, "Mus musculus [13]": {"tested_on": "Mus musculus", "assay": "Anti-inflammatory activity against po dosed LPS-induced ALI C57BL/6 mouse model assessed as decrease in TNF-alpha level in serum treated 1 hr prior to LPS challenge and measured after 48 hrs by ELISA", "assay_type": "functional, organism-based", "conditions": "dose 2-50 mg/kg, time 49.0 hrs, DDE = dose-dependent effect"}, "Mus musculus [14]": {"tested_on": "Mus musculus", "assay": "Anti-inflammatory activity against po dosed LPS-induced ALI C57BL/6 mouse model assessed as decrease in histopatological changes of lungs treated 1 hr prior to LPS challenge and measured after 48 hrs by H and E staining based analysis", "assay_type": "functional, organism-based", "conditions": "dose 2-50 mg/kg, time 49.0 hrs, DDE = dose-dependent effect"}, "[15]": {"assay": "Acute toxicity in ICR mouse assessed as animal behavioural changes at 1500 mg/kg, po administered as single dose and measured for 7 days", "assay_type": "organism-based", "conditions": "in vivo, time 7 day"}, "[16]": {"target": "T1, Dipeptidyl peptidase 1 (Mus musculus)", "assay": "Inhibition of Cathepsin C in C57BL/6 mouse Bone marrow cells assessed as reduction of NSPs stability by measuring stability of protease 3 at 1 uM treated for 12 hrs by Western blotting analysis", "assay_type": "cell-based", "set-up": "scale not given: the % may be the effect or the level left", "conditions": "Bone marrow cell"}, "[17]": {"target": "T1, Dipeptidyl peptidase 1 (Mus musculus)", "assay": "Inhibition of Cathepsin C in C57BL/6 mouse Bone marrow cells assessed as reduction of NSPs stability by measuring stability of cathepsin G at 1 uM treated for 12 hrs by Western blotting analysis", "assay_type": "cell-based", "set-up": "scale not given: the % may be the effect or the level left", "conditions": "Bone marrow cell"}, "Mus musculus [18]": {"tested_on": "Mus musculus", "assay": "In vivo inhibition of cathepsin C in bone marrow of po dosed LPS-induced ALI C57BL/6 mouse model treated 1 hr prior to LPS challenge and measured after 48 hrs", "assay_type": "functional, organism-based", "conditions": "dose 2-50 mg/kg, time 49.0 hrs, DDE = dose-dependent effect"}, "Mus musculus [19]": {"tested_on": "Mus musculus", "assay": "In vivo inhibition of cathepsin C in blood of po dosed LPS-induced ALI C57BL/6 mouse model treated 1 hr prior to LPS challenge and measured after 48 hrs", "assay_type": "functional, organism-based", "conditions": "dose 2-50 mg/kg, time 49.0 hrs, DDE = dose-dependent effect"}, "Mus musculus [20]": {"tested_on": "Mus musculus", "assay": "In vivo inhibition of cathepsin C in po dosed LPS-induced ALI C57BL/6 mouse model assessed as downregulation of neutrophil elastase activity in bone marrow treated 1 hr prior to LPS challenge and measured after 48 hrs", "assay_type": "functional, organism-based", "conditions": "dose 2-50 mg/kg, time 49.0 hrs, DDE = dose-dependent effect"}, "Mus musculus [21]": {"tested_on": "Mus musculus", "assay": "In vivo inhibition of cathepsin C in po dosed LPS-induced ALI C57BL/6 mouse model assessed as downregulation of Cat G activity in bone marrow treated 1 hr prior to LPS challenge and measured after 48 hrs", "assay_type": "functional, organism-based", "conditions": "dose 2-50 mg/kg, time 49.0 hrs, DDE = dose-dependent effect"}, "Mus musculus [22]": {"tested_on": "Mus musculus", "assay": "In vivo inhibition of cathepsin C in po dosed LPS-induced ALI C57BL/6 mouse model assessed as downregulation of neutrophil elastase activity in blood treated 1 hr prior to LPS challenge and measured after 48 hrs", "assay_type": "functional, organism-based", "conditions": "dose 2-50 mg/kg, time 49.0 hrs, DDE = dose-dependent effect"}, "Mus musculus [23]": {"tested_on": "Mus musculus", "assay": "In vivo inhibition of cathepsin C in po dosed LPS-induced ALI C57BL/6 mouse model assessed as downregulation of Cat G activity in blood treated 1 hr prior to LPS challenge and measured after 48 hrs", "assay_type": "functional, organism-based", "conditions": "dose 2-50 mg/kg, time 49.0 hrs, DDE = dose-dependent effect"}, "Mus musculus [24]": {"tested_on": "Mus musculus", "assay": "Anti-inflammatory activity against po dosed LPS-induced ALI C57BL/6 mouse model assessed as decrease in TNF-alpha level in lungs treated 1 hr prior to LPS challenge and measured after 48 hrs by ELISA", "assay_type": "functional, organism-based", "conditions": "dose 2-50 mg/kg, time 49.0 hrs, DDE = dose-dependent effect"}, "Mus musculus [25]": {"tested_on": "Mus musculus", "assay": "Anti-inflammatory activity against po dosed LPS-induced ALI C57BL/6 mouse model assessed as decrease in IL-6 level in lungs treated 1 hr prior to LPS challenge and measured after 48 hrs by ELISA", "assay_type": "functional, organism-based", "conditions": "dose 2-50 mg/kg, time 49.0 hrs, DDE = dose-dependent effect"}}, "data": [{"compound": "CC(=O)Nc1cccc(Nc2nc(Nc3ccc(-c4ccsc4)cn3)ncc2Cl)c1", "values": [{"measurement": "IC50", "setting": "Dipeptidyl peptidase 1", "result": 59.9, "unit": "nM"}, {"measurement": "Activity", "setting": "[1]", "result": "Non-Toxic"}, {"measurement": "F", "setting": "[2]", "result": 42.07, "unit": "%"}, {"measurement": "Tmax", "setting": "[3]", "result": 0.77, "unit": "h"}, {"measurement": "MRT", "setting": "[4]", "result": 2.35, "unit": "h"}, {"measurement": "MRT", "setting": "[5]", "result": 3.38, "unit": "h"}, {"measurement": "AUC", "setting": "[6]", "result": 1124.78, "unit": "ng·h/mL"}, {"measurement": "Activity", "setting": "[7]", "result": 93.5, "unit": "%"}, {"measurement": "Activity", "setting": "[8]", "result": 93.4, "unit": "%"}, {"measurement": "Activity", "setting": "[9]", "result": 68.3, "unit": "%"}, {"measurement": "Activity", "setting": "[10]", "result": 46.1, "unit": "%"}, {"measurement": "Activity", "setting": "[11]", "result": 46.8, "unit": "%"}, {"measurement": "Activity", "setting": "Mus musculus [12]", "result": "Dde"}, {"measurement": "Activity", "setting": "Mus musculus [13]", "result": "Dde"}, {"measurement": "Activity", "setting": "Mus musculus [14]", "result": "Dde"}, {"measurement": "Activity", "setting": "[15]", "result": "Non-Toxic"}, {"measurement": "Activity", "setting": "[16]", "result": 78.4, "unit": "%"}, {"measurement": "Activity", "setting": "[17]", "result": 81.1, "unit": "%"}, {"measurement": "inhibition", "setting": "Mus musculus [18]", "result": "Dde"}, {"measurement": "inhibition", "setting": "Mus musculus [19]", "result": "Dde"}, {"measurement": "inhibition", "setting": "Mus musculus [20]", "result": "Dde"}, {"measurement": "inhibition", "setting": "Mus musculus [21]", "result": "Dde"}, {"measurement": "inhibition", "setting": "Mus musculus [22]", "result": "Dde"}, {"measurement": "inhibition", "setting": "Mus musculus [23]", "result": "Dde"}, {"measurement": "Activity", "setting": "Mus musculus [24]", "result": "Dde"}, {"measurement": "Activity", "setting": "Mus musculus [25]", "result": "Dde"}]}]}
